Test: xn = mol fraction of the nth substance listed
Conditions: 100 kPa

O + CC(N)C(=O)[O-].CCCC[n+]1ccn(C)c1C
x2 = 0
Conditions | viscosity [mPa·s]
288.15 K | 1.17
293.15 K | 1.03
303.15 K | 0.82
308.15 K | 0.74

O + CCCC[n+]1ccn(C)c1C.NCC(=O)[O-]
x2 = 0
Conditions | viscosity [mPa·s]
288.15 K | 1.17
293.15 K | 1.03
298.15 K | 0.91
303.15 K | 0.82
318.15 K | 0.61

O + N[C@@H]([C@H](O)C)C(=O)[O-].C(CCC)N1C(=[N+](C=C1)C)C
x2 = 0
Conditions | viscosity [mPa·s]
288.15 K | 1.17
298.15 K | 0.91
303.15 K | 0.82
308.15 K | 0.74
318.15 K | 0.61

CC(N)C(=O)[O-].CCCC[n+]1ccn(C)c1C + O
viscosity [mPa·s]
Conditions | x1 = 0.1003 | x1 = 0.2012 | x1 = 0.3009 | x1 = 0.4014 | x1 = 0.4938 | x1 = 0.5975 | x1 = 0.6987 | x1 = 0.7945 | x1 = 0.8965 | x1 = 1
288.15 K | 28.4 | 52 | 86 | 127 | 168 | 215 | 270 | 336 | 429 | 520
293.15 K | – | 40 | 64 | 95 | 126 | 161 | – | 244 | 307 | –
298.15 K | 17.1 | 30.5 | 48.9 | 72 | 96 | 123 | 151 | 183 | 226 | 268
303.15 K | 12.8 | 23.3 | 36.8 | 54 | 72 | 92 | 113 | 136 | 165 | 192
308.15 K | 10.6 | 19 | 30 | 44 | 58 | 75 | 92 | 110 | 131 | 150
313.15 K | 8.1 | 14.7 | 23 | 33.5 | 44.2 | 57 | – | 82 | 97 | 110
318.15 K | 6.7 | 12.1 | – | 27.5 | 36.3 | 46.7 | 57 | 67 | 77 | –

CCCC[n+]1ccn(C)c1C.NCC(=O)[O-] + O
viscosity [mPa·s]
Conditions | x1 = 0.0999 | x1 = 0.1982 | x1 = 0.3003 | x1 = 0.3904 | x1 = 0.4786 | x1 = 0.6 | x1 = 0.6999 | x1 = 0.798 | x1 = 0.9001 | x1 = 1
288.15 K | 25.2 | 40.3 | 63 | 92 | 125 | 180 | 232 | 298 | 390 | 480
293.15 K | 18.2 | 29.1 | 45.4 | – | 90 | 129 | 163 | 205 | 257 | 318
298.15 K | – | – | – | 49.1 | 67 | – | – | – | 178 | 218
303.15 K | 10.4 | 17.3 | 26.7 | 37.7 | 51 | 71 | 88 | 105 | – | 152
308.15 K | – | 13.1 | – | – | 38.3 | 53 | – | 77 | 90 | 109
313.15 K | 6.3 | 10.8 | 16.6 | – | 31.2 | 43.1 | 53 | 62 | – | 84
318.15 K | 5.7 | 9.6 | 14.7 | 20.5 | 27.5 | 38.1 | – | – | 61 | 72

CCCCn1cc[n+](C)c1C.C[C@@H](O)[C@H](N)C(=O)[O-] + O
viscosity [mPa·s]
Conditions | x1 = 0.0998 | x1 = 0.1919 | x1 = 0.2985 | x1 = 0.4004 | x1 = 0.4927 | x1 = 0.599 | x1 = 0.7003 | x1 = 0.8001 | x1 = 0.9012 | x1 = 1
288.15 K | 57 | 84 | 141 | 228 | – | 470 | 650 | 880 | 1181 | 1472
293.15 K | 40.4 | 61 | – | 164 | 236 | 331 | – | 600 | 780 | 960
298.15 K | 28.7 | 44 | 73 | 115 | 164 | 231 | – | – | 510 | 610
303.15 K | 18.1 | 28.7 | 47.4 | 74 | 105 | 145 | 191 | 245 | 310 | 363
308.15 K | 15.6 | – | 40.6 | – | 89 | – | 159 | – | 245 | 285
313.15 K | 9.8 | 15.8 | – | 40.6 | 57 | – | 100 | 122 | 145 | 167
318.15 K | 8 | 13.1 | – | – | – | 62 | – | – | 107 | 125

Reference: a compilation of properties of binary mixtures (doi:10.1016/j.molliq.2022.119209)
